One may read the DC50 as the concentration giving 50% degradation.

This is an account of results in patent US20250302815A1, “PROTEIN TYROSINE PHOSPHATASE TARGETING LIGANDS” (CALICO LIFE SCIENCES LLC, priority 2021, published 2025).

For test [1], the target named is T1, PTPN2 (HiBIT-PTPN2 in 293T.109 cells) (Homo sapiens, UniProt P17706).
T1 construct: expressed in transfected cells; host or cells: 293T.109 (293T WT from ATCC)
T1 sequence (P17706 1-415): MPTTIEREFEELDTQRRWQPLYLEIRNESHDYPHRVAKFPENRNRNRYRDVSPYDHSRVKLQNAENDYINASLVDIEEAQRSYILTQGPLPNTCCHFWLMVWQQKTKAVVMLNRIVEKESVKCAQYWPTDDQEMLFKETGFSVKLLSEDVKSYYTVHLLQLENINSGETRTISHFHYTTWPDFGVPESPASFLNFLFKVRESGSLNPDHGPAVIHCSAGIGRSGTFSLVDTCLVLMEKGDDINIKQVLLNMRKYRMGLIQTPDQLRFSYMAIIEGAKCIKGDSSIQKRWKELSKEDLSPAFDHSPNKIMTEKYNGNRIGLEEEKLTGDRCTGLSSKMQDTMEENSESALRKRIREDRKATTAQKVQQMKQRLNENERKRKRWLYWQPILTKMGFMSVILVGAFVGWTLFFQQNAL
Kind of test: HiBiT Degradation 293T.109 PTPN2 (Nano-Glo HiBiT Lytic Assay). In kind it is cell-based. The note with it: 24.0 hours. The essentials: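 293T.109 cells with ectopic N-terminal HiBiT-tagged PTPN2 (5000/well) exposed to compounds for 24 h at 37 °C, 5% CO2; 11-point half-log titration from 10 μM top, duplicates. Remaining HiBiT-PTPN2 read as luminescence with Nano-Glo HiBiT lytic reagent, normalised to untreated cells (0%) and reagent-free wells.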
(In general: With HiBiT, luminescence reflects the tagged protein that the partner subunit can reach.)

The target of a further test is T2, PTPN2 (B16F10.4 cells) (Mus musculus, UniProt Q06180).
T2 construct: HiBiT; host or cells: B16F10.4
T2 sequence (Q06180 1-406): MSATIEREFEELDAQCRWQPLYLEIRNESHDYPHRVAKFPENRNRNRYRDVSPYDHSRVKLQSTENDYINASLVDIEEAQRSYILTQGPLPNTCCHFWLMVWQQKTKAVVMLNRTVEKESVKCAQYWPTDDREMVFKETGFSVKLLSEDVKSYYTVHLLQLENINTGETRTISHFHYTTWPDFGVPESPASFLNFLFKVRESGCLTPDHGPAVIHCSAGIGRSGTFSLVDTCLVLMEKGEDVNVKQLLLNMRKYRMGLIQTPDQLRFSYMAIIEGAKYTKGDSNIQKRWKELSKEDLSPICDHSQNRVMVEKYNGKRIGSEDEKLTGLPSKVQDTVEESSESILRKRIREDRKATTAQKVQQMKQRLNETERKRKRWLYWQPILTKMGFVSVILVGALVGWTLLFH
Kind of test: HiBiT Degradation B16F10.4 PTPN2. In kind it is cell-based. The note with it: 24.0 hours.

For the molecule `O=C(O)COc1c(C(=O)O)sc(-c2cccc(NC3CCN(S(=O)(=O)Cc4cccc(NC(=O)CCOCCNC(=O)CNc5ccc6c(c5)C(=O)N(C5CCC(=O)NC5=O)C6=O)c4)CC3)c2)c1Cl` (centres unmarked) [Example 24, 3-(carboxymethoxy)-4-chloro-5-[3-[[1-[[3-[3-[2-[[2-[[2-(2,6-dioxo-3-piperidyl)-1,3-dioxo-isoindolin-5-yl]amino]acetyl]amino]ethoxy]propanoylamino]phenyl]methylsulfonyl]-4-piperidyl]amino]phenyl]thiophene-2-carboxylic acid], the DC50 in test [1] was 200 to 1000 nM; at PTPN2 (B16F10.4 cells), at least 1000 nM.
`CC1(C)C[C@@H](Nc2cccc(-c3sc(C(=O)O)c(OCC(=O)O)c3Cl)c2)CCN1S(=O)(=O)Cc1cccc(NC(=O)N2CCC(c3ccc4c(c3)n(C3CC3)c(=O)n4C3CCC(=O)NC3=O)CC2)c1` (stereo partly drawn) [Example 154, 3-(carboxymethoxy)-4-chloro-5-[3-[[(4S)-1-[[3-[[4-[3-cyclopropyl-1-(2,6-dioxo-3-piperidyl)-2-oxo-benzimidazol-S-yl]piperidine-1-carbonyl]amino]phenyl]methylsulfonyl]-2,2-dimethyl-4-piperidyl]amino]phenyl]thiophene-2-carboxylic acid]: the DC50 (in test [1]; at PTPN2 (B16F10.4 cells)) was 50 to 200 nM each time.
As to `Cn1c(=O)n(C2CCC(=O)NC2=O)c2ccc(C3CCN(C(=O)Nc4cccc(CS(=O)(=O)N5CCC(Nc6cc(-c7sc(C(=O)O)c(OCC(=O)O)c7Cl)ccc6F)CC5)c4)CC3)cc21` (centres unmarked) [Example 121, 3-(carboxymethoxy)-4-chloro-5-[3-[[1-[[3-[[4-[1-(2,6-dioxo-3-piperidyl)-3-methyl-2-oxo-benzimidazol-5-yl]piperidine-1-carbonyl]amino]phenyl]methylsulfonyl]-4-piperidyl]amino]-4-fluoro-phenyl]thiophene-2-carboxylic acid], the DC50 lay in the range of 200 to 1000 nM in test [1] and 50 to 200 nM on PTPN2 (B16F10.4 cells).
As to `CC1(C)C[C@@H](Nc2cccc(-c3sc(C(=O)O)c(OCC(=O)O)c3Cl)c2F)CCN1S(=O)(=O)Cc1ccc(F)c(NC(=O)N2CCC(c3ccc4c5c(cccc35)C(=O)N4C3CCC(=O)NC3=O)CC2)c1` (single isomer, unassigned) [Example 167], the DC50 is 50 to 200 nM in test [1] and below 50 nM at PTPN2 (B16F10.4 cells).
For the molecule `Cn1c(=O)n(C2CCC(=O)NC2=O)c2ccc(N3CCC(C(=O)Nc4cccc(CS(=O)(=O)N5CC[C@H](Nc6cccc(-c7sc(C(=O)O)c(OCC(=O)O)c7Cl)c6)CC5(C)C)c4)CC3)cc21` (some centres unmarked) [Example 122], the 50% degradation concentration (DC50) (in test [1]; on PTPN2 (B16F10.4 cells)) was 50 to 200 nM each time.
`Cn1c(=O)n([C@@H]2CCC(=O)NC2=O)c2ccc([C@@H]3CCN(C(=O)Nc4cccc(CS(=O)(=O)N5CC[C@H](Nc6cccc(-c7sc(C(=O)O)c(OCC(=O)O)c7Cl)c6)CC5(C)C)c4)CC3(F)F)cc21` (single isomer, unassigned) [Example 169b]: the DC50 (in test [1]; on PTPN2 (B16F10.4 cells)) was 50 to 200 nM throughout.
Consider `CC1(C)C[C@@H](Nc2cccc(-c3sc(C(=O)O)c(OCC(=O)O)c3Cl)c2)CCN1S(=O)(=O)Cc1cccc(NC(=O)[C@H]2[C@@H]3CN(C(=O)COc4cccc5c4CN(C4CCC(=O)NC4=O)C5=O)C[C@@H]32)c1` (some centres unmarked) [Example 101], for which the DC50 (in test [1]; at PTPN2 (B16F10.4 cells)) was 50 to 200 nM each time.
Take `CC1(C)C[C@@H](Nc2cccc(-c3sc(C(=O)O)c(OCC(=O)O)c3Cl)c2)CCN1S(=O)(=O)Cc1cccc(NC(=O)N2CCC(Cc3ccc4c5c(cccc35)C(=O)N4C3CCC(=O)NC3=O)CC2)c1` (stereo partly drawn) [Example 158, 3-(carboxymethoxy)-4-chloro-5-(3-(((4S)-1-((3-(4-((1-(2,6-dioxopiperidin-3-yl)-2-oxo-1,2-dihydrobenzo[cd]indol-6-yl)methyl)piperidine-1-carboxamido)benzyl)sulfonyl)-2,2-dimethylpiperidin-4-yl)amino)phenyl)thiophene-2-carboxylic acid]: the DC50 is 50 to 200 nM in test [1] and below 50 nM at PTPN2 (B16F10.4 cells).
Regarding `CC1(C)C[C@@H](Nc2cccc(-c3sc(C(=O)O)c(OCC(=O)O)c3Cl)c2)CCN1S(=O)(=O)Cc1cccc(NC(=O)N2CCCN(c3ccc4c5c(cccc35)C(=O)N4C3CCC(=O)NC3=O)CC2)c1` (stereo partly drawn) [Example 163, 3-(carboxymethoxy)-4-chloro-5-(3-(((4S)-1-((3-(4-(1-(2,6-dioxopiperidin-3-yl)-2-oxo-1,2-dihydrobenzo[cd]indol-6-yl)-1,4-diazepane-1-carboxamido)benzyl)sulfonyl)-2,2-dimethylpiperidin-4-yl)amino)phenyl)thiophene-2-carboxylic acid], the DC50 (in test [1]; on PTPN2 (B16F10.4 cells)) was 50 to 200 nM throughout.
With `Cn1c(=O)n(C2CCC(=O)NC2=O)c2ccc(CCC(=O)Nc3cccc(CS(=O)(=O)N4CCC(Nc5cccc(-c6sc(C(=O)O)c(OCC(=O)O)c6Cl)c5)CC4)c3)cc21` (centres unmarked) [Example 49, 3-(carboxymethoxy)-4-chloro-5-(3-((1-((3-(3-(1-(2,6-dioxopiperidin-3-yl)-3-methyl-2-oxo-2,3-dihydro-1H-benzo[d]imidazol-5-yl)propanamido)benzyl)sulfonyl)piperidin-4-yl)amino)phenyl)thiophene-2-carboxylic acid], the DC50 (in test [1]; at PTPN2 (B16F10.4 cells)) was 200 to 1000 nM each time.
As for `O=C(O)COc1c(C(=O)O)sc(-c2cccc(NC3CCN(S(=O)(=O)Cc4cccc(NC(=O)CCCCNC(=O)CNc5cccc6c5CN(C5CCC(=O)NC5=O)C6=O)c4)CC3)c2)c1Cl` (centres unmarked) [Example 22, 3-(carboxymethoxy)-4-chloro-5-(3-((1-((3-(5-(2-((2-(2,6-dioxopiperidin-3-yl)-1-oxoisoindolin-4-yl)amino)acetamido)pentanamido)benzyl)sulfonyl)piperidin-4-yl)amino)phenyl)thiophene-2-carboxylic acid], the results for the 50% degradation concentration (DC50) (in test [1]; on PTPN2 (B16F10.4 cells)) were 200 to 1000 nM and at least 1000 nM, respectively.
For `Cn1c(=O)n(C2CCC(=O)NC2=O)c2ccc(N3CCN(C(=O)Nc4cccc(CS(=O)(=O)N5CC[C@H](Nc6cccc(-c7sc(C(=O)O)c(OCC(=O)O)c7Cl)c6)CC5(C)C)c4)CC3)cc21` (stereo partly drawn) [Example 80, 3-(Carboxymethoxy)-4-chloro-5-[3-[[(4S)-1-[[3-[[4-[1-(2,6-dioxo-3-piperidyl)-3-methyl-2-oxo-benzimidazol-5-yl]piperazine-1-carbonyl]amino]phenyl]methylsulfonyl]-2,2-dimethyl-4-piperidyl]amino]phenyl]thiophene-2-carboxylic acid], the DC50 (in test [1]; on PTPN2 (B16F10.4 cells)) was 50 to 200 nM each time.
Take `O=C(O)COc1c(C(=O)O)sc(-c2cccc(NC3CCN(S(=O)(=O)Cc4cccc(NC(=O)CCOCCOCCCc5cccc6c5C(=O)N(C5CCC(=O)NC5=O)C6=O)c4)CC3)c2)c1Cl` (centres unmarked) [Example 20, 3-(carboxymethoxy)-4-chloro-5-[3-[[1-[[3-[3-[2-[3-[2-(2,6-dioxo-3-piperidyl)-1,3-dioxo-isoindolin-4-yl]propoxy]ethoxy]propanoylamino]phenyl]methylsulfonyl]-4-piperidyl]amino]phenyl]thiophene-2-carboxylic acid]: the values for the DC50 (in test [1]; on PTPN2 (B16F10.4 cells)) were 200 to 1000 nM and at least 1000 nM, respectively.
